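Cultured in 96-well plates, cells were exposed to test compound for 48 hours across five concentrations. GI50 = concentration required for 50% inhibition of growth.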 The source made the active and inactive calls. Cut-off read from the data, not from the text of the source: active = GI50 up to about 1.1 µM and inactive = higher.
Columns and labels:
Assay in all cases: growth of human tumour cells (NCI), 48 h
SN12C = system: SN12C
M14 = system: M14
SNB-75 = system: SNB-75
RXF 393 = system: RXF 393
HOP-92 = system: HOP-92
T47D = system: T47D
RPMI-8226 = system: RPMI-8226
TK-10 = system: TK-10
UO-31 = system: UO-31
NCI-H522 = system: NCI-H522
MDA-MB-231 = system: MDA-MB-231
SNB-19 = system: SNB-19
ACHN = system: ACHN
Hs-578T = system: Hs-578T
SK-MEL-28 = system: SK-MEL-28
NCI-H23 = system: NCI-H23
KM12 = system: KM12
CAKI-1 = system: CAKI-1
MCF7 = system: MCF7
A498 = system: A498

Measured: GI50

CSc1ccc(/C=C2\CNC/C(=C\c3ccc(SC)cc3)C2=O)cc1
inactive: SN12C > 139 µM | M14 > 206 µM | SNB-75 15 µM | RXF 393 25.9 µM | HOP-92 65.5 µM | T47D > 371 µM | RPMI-8226 > 79.8 µM | TK-10 41.9 µM | UO-31 > 252 µM | NCI-H522 56.4 µM | MDA-MB-231 86.9 µM | SNB-19 26.7 µM | ACHN 120 µM | Hs-578T 64.1 µM | SK-MEL-28 > 209 µM

CC(=O)OCCOCn1c2c(c(=S)[nH]c1=O)CCC2
inactive: SN12C > 100 µM | NCI-H23 > 100 µM | M14 > 100 µM | SNB-75 > 100 µM | RXF 393 > 100 µM | HOP-92 > 100 µM | RPMI-8226 > 100 µM | KM12 > 100 µM | TK-10 > 100 µM | UO-31 > 100 µM | CAKI-1 > 100 µM | NCI-H522 > 100 µM | MCF7 > 100 µM | MDA-MB-231 > 100 µM | SNB-19 > 100 µM | ACHN > 100 µM | Hs-578T > 100 µM | SK-MEL-28 > 100 µM

COc1c(N2CCCCC2)c2c(=O)c3ccccc3oc2c2cc(C)oc12
inactive: SN12C 24.8 µM | NCI-H23 18.5 µM | M14 14.8 µM | SNB-75 11.3 µM | RXF 393 15.6 µM | HOP-92 7.45 µM | RPMI-8226 5.94 µM | KM12 16.5 µM | TK-10 37.6 µM | UO-31 11.3 µM | CAKI-1 14.1 µM | A498 16 µM | MCF7 16.7 µM | MDA-MB-231 5.26 µM | SNB-19 40 µM | ACHN 5.6 µM | Hs-578T 18.4 µM | SK-MEL-28 25.4 µM

O=S1(=O)OCCOS(=O)(=O)C1F
inactive: SN12C > 100 µM | NCI-H23 > 100 µM | M14 > 100 µM | SNB-75 > 100 µM | RXF 393 > 100 µM | T47D > 100 µM | RPMI-8226 > 100 µM | KM12 > 100 µM | TK-10 > 100 µM | UO-31 > 100 µM | CAKI-1 > 100 µM | NCI-H522 > 100 µM | MCF7 > 100 µM | SNB-19 > 100 µM | ACHN > 100 µM | Hs-578T > 100 µM | SK-MEL-28 > 100 µM

Cc1ccn2c(=O)cc(CN3CCOCC3)nc2c1
inactive: SN12C > 100 µM | NCI-H23 > 100 µM | M14 > 100 µM | SNB-75 > 100 µM | HOP-92 > 100 µM | RPMI-8226 > 100 µM | KM12 > 100 µM | TK-10 > 100 µM | UO-31 > 100 µM | CAKI-1 > 100 µM | NCI-H522 > 100 µM | MCF7 > 100 µM | MDA-MB-231 > 100 µM | SNB-19 > 100 µM | ACHN > 100 µM | Hs-578T > 100 µM | SK-MEL-28 > 100 µM

Nc1ccc(/N=N/c2c(S(=O)(=O)O)cc3ccccc3c2S(=O)(=O)O)cc1
inactive: SN12C > 100 µM | NCI-H23 > 100 µM | M14 > 100 µM | SNB-75 > 100 µM | RXF 393 > 100 µM | HOP-92 > 100 µM | T47D > 100 µM | KM12 > 100 µM | TK-10 > 100 µM | UO-31 > 100 µM | CAKI-1 > 100 µM | A498 > 100 µM | NCI-H522 > 100 µM | MDA-MB-231 > 100 µM | SNB-19 > 100 µM | ACHN > 100 µM | Hs-578T > 100 µM | SK-MEL-28 > 100 µM

NC(=O)CNC(=O)[C@@H]1CC(OCCC(=O)O)CN1C(=O)C1CCCN1C(=O)OCc1ccccc1 (some centres undefined)
inactive: SN12C > 100 µM | NCI-H23 > 100 µM | M14 > 100 µM | SNB-75 > 100 µM | RXF 393 > 100 µM | T47D > 100 µM | RPMI-8226 > 100 µM | KM12 > 100 µM | TK-10 > 100 µM | UO-31 > 100 µM | A498 > 100 µM | NCI-H522 > 100 µM | MCF7 > 100 µM | MDA-MB-231 > 100 µM | SNB-19 > 100 µM | ACHN > 100 µM | Hs-578T > 100 µM | SK-MEL-28 > 100 µM

N#C/C(N)=C(C#N)/N=C/Nc1ccccc1N
inactive: SN12C > 100 µM | NCI-H23 > 100 µM | M14 > 100 µM | SNB-75 > 100 µM | T47D > 100 µM | RPMI-8226 > 100 µM | KM12 > 100 µM | TK-10 > 100 µM | UO-31 > 100 µM | CAKI-1 > 100 µM | A498 > 100 µM | NCI-H522 > 100 µM | MCF7 > 100 µM | MDA-MB-231 > 100 µM | SNB-19 > 100 µM | ACHN > 100 µM | Hs-578T > 100 µM | SK-MEL-28 > 100 µM

COC(=O)C1SC(N(C)c2ccccc2)=NC12c1ccccc1Nc1ccccc12 (centres undefined)
inactive: SN12C 22.4 µM | NCI-H23 13.6 µM | M14 19.5 µM | SNB-75 25.8 µM | RXF 393 31.3 µM | HOP-92 14.1 µM | T47D 15.7 µM | RPMI-8226 3.08 µM | KM12 18.3 µM | TK-10 29.8 µM | UO-31 22.5 µM | CAKI-1 23.8 µM | A498 20.7 µM | NCI-H522 13.4 µM | MCF7 22 µM | SNB-19 23.9 µM | ACHN 31 µM | Hs-578T 14.5 µM | SK-MEL-28 19.2 µM

COc1cc(C2c3cc4c(cc3[C@@H](Nc3ccccc3)C3CO[C@@H](OC)[C@H]23)OCO4)cc(OC)c1O (some centres undefined)
inactive: SN12C 7.36 µM | M14 10.4 µM | SNB-75 7.41 µM | T47D 8.36 µM | RPMI-8226 3.01 µM | KM12 5.83 µM | TK-10 9.46 µM | UO-31 3.01 µM | NCI-H522 6.58 µM | MCF7 4.5 µM | SNB-19 6.07 µM | ACHN 3.18 µM | Hs-578T 3.21 µM | SK-MEL-28 19.6 µM

Cc1nn2c(N)cc(=O)nc2nc1/C=C/c1ccc(N(C)C)cc1
inactive: SN12C > 65.6 µM | NCI-H23 10.4 µM | M14 > 28 µM | RXF 393 98.6 µM | T47D > 100 µM | RPMI-8226 10.1 µM | KM12 > 28.8 µM | TK-10 > 100 µM | UO-31 3.94 µM | CAKI-1 3.45 µM | NCI-H522 1.66 µM | MCF7 3.92 µM | SNB-19 29.9 µM | ACHN 18 µM | Hs-578T 6.84 µM | SK-MEL-28 > 84.5 µM

COc1cc(N(CCC#N)CCC#N)ccc1/C=N\NC(=O)c1ccc(C)cc1
inactive: SN12C > 100 µM | NCI-H23 > 100 µM | M14 > 100 µM | SNB-75 > 100 µM | RXF 393 > 100 µM | HOP-92 > 100 µM | T47D > 100 µM | KM12 > 100 µM | TK-10 > 100 µM | CAKI-1 > 100 µM | NCI-H522 > 100 µM | MDA-MB-231 18.2 µM | SNB-19 > 100 µM | ACHN > 100 µM | Hs-578T > 100 µM | SK-MEL-28 > 100 µM

COc1c(-c2ccc(F)cc2)oc2c(CC(=O)O)cccc2c1=O
inactive: SN12C > 100 µM | NCI-H23 45.5 µM | M14 > 100 µM | RXF 393 > 100 µM | T47D > 100 µM | TK-10 > 100 µM | UO-31 40.9 µM | CAKI-1 22.3 µM | A498 > 100 µM | NCI-H522 > 100 µM | MCF7 > 100 µM | MDA-MB-231 > 100 µM | ACHN > 100 µM | Hs-578T > 100 µM

CSC(SC)=C(C#N)C(=O)Nc1cccc(Cl)c1
inactive: SN12C > 100 µM | M14 47.8 µM | SNB-75 > 100 µM | RXF 393 > 100 µM | HOP-92 21 µM | KM12 > 100 µM | TK-10 59.3 µM | CAKI-1 45.9 µM | A498 61.1 µM | NCI-H522 17.5 µM | MCF7 34.8 µM | MDA-MB-231 > 100 µM | SNB-19 > 100 µM | ACHN 75.2 µM | Hs-578T > 100 µM | SK-MEL-28 64.7 µM

CCOC(=O)NC1CN2CCC1CC2 (centres undefined)
inactive: SN12C > 100 µM | NCI-H23 > 100 µM | M14 > 100 µM | SNB-75 > 100 µM | RXF 393 > 100 µM | HOP-92 > 100 µM | T47D > 100 µM | RPMI-8226 > 100 µM | KM12 > 100 µM | UO-31 > 100 µM | CAKI-1 > 100 µM | A498 > 100 µM | NCI-H522 > 100 µM | MDA-MB-231 > 100 µM | SNB-19 > 100 µM | ACHN > 100 µM | Hs-578T > 100 µM | SK-MEL-28 > 100 µM

[N-]=[N+]=NC(c1cn(C2CC(O)C(CO)O2)c(=O)[nH]c1=O)C(Cl)I (centres undefined)
inactive: SN12C > 100 µM | NCI-H23 > 100 µM | M14 > 100 µM | SNB-75 33.3 µM | RXF 393 > 100 µM | T47D > 100 µM | RPMI-8226 > 100 µM | KM12 > 100 µM | TK-10 > 100 µM | UO-31 > 100 µM | A498 > 100 µM | MCF7 > 100 µM | MDA-MB-231 > 100 µM | SNB-19 > 100 µM | ACHN > 100 µM | Hs-578T > 100 µM | SK-MEL-28 > 100 µM

Source: ChEMBL document CHEMBL1201862, “PubChem BioAssay data set” (2004)
